“Also recorded” adds a separate entry of the source.
Assays:
mTORC1 signaling pathway = assay: Western blot of mTORC1 signaling (S6K phosphorylation); format: cell-based; settings: compared with the control group, with or without light (420 nm, 70 mW/cm^2, 3 min)
Method: (§1) FIG. 5 is a photomicrograph showing bands corresponding to each of p-S6K, S6K, p-Akt, Akt, mTOR, and GAPDH, respectively, from cells treated with each of DMSO (control), OSI-027, DEACM, and cOSI-027, respectively, each with (+) or without (−) exposure to light (420 nm, 70 mW/cm^2, 3 min).
(§2) To further investigate the mTOR inhibitory effect of OSI-027 and cOSI-027 with or without light irradiation, western blot was performed to analyze the protein expression level of mTOR pathway (FIG. 5). S6K and Akt phosphorylation ratios were chosen as markers for mTORC1 and mTORC2 signaling pathway investigation, respectively.

mTORC2 signaling pathway = assay: Western blot of mTORC2 signaling (Akt phosphorylation); format: cell-based; settings: compared with the control group, with or without light (420 nm, 70 mW/cm^2, 3 min)
Method: as §1, §2

autophagy activity = assay: Western blot of autophagy level (LC3-II/LC3-I ratio); format: cell-based
Text: FIGS. 6A-6B show results of Western blotting and quantification of autophagy. FIG. 6A is a photomicrograph showing bands corresponding to each of LC3-I, LC3-II, and GADPH in cells treated with each of DMSO (control), OSI-027, DEACM, and cOSI-027, respectively, each with (+) or without (−) exposure to light. FIG. 6B is a graph showing normalized LC3-II/LC3-I ratio (0-15) for each of the bands in FIG. 6A including DMSO, OSI-027, DEACM, and cOSI-027, each with or without exposure to light, respectively. Light irradiation was done with a 420 nm LED (70 mW/cm^2, 3 min).
mTORC1 inhibition leads to higher autophagy activity, resulting in enhanced protein degradation ability in the lysosome. Therefore, whether the photochemical-controlled mTOR inhibition strategy can be used for manipulating autophagy activity was investigated. Autophagy level was characterized by the LC3-II/LC3-I ratio through western blot analysis (FIGS. 6A-6B). 24 h after the drug treatment, OSI-027 increased the LC3-II/LC-I ratio compared with the control group, indicating a higher autophagy activity. And cOSI-027 treatment led to a higher LC3-II/LC3-I ratio after light irradiation, compared with non-irradiation group.

[1] = test system: mCherry-GFP-LC3 transfected HeLa cell line; assay: CLSM of LC3 puncta in mCherry-GFP-LC3 cells; format: cell-based
Text: FIGS. 7A-7B are photomicrographs showing the presence of mCherry and/or GFP following exposure to different formulations and respective quantitative analysis. FIG. 7A is a panel of photomicrographs showing the presence of mCherry and/or GFP in cells treated with each of DMSO, OSI-027, DEACM, and cOSI-027, each with light irradiation or no light, respectively. FIG. 7B is a graph showing number of LC3 puncta per cell (0-300) for each of the groups in FIG. 7A. Light irradiation was done with a 420 nm LED (70 mW/cm^2, 3 min).
To further validate the photoactivated effect on autophagy, a mCherry-GFP-LC3 transfected HeLa cell line was established to accurately monitor the LC3 expression and subcellular localization.

cancer cells = assay: MTT cell viability assay; format: cell-based
Method: FIG. 8 is a bar graph showing cell viability (0%-150%) for cell groups treated with each of DMSO (control), OSI-027, DEACM, and cOSI-027, each at 50 μM, respectively, each with (+) or without (−) exposure to light. Light irradiation was done with a 420 nm LED (70 mW/cm^2, 3 min).
To investigate the anti-cancer effect of this photo-activatable prodrug system, MTT assay was further conducted to analyze the cell viability after the treatment with different formulations.

[2] = cited from earlier work
[3] = Photocleavage of cOSI-027 by HPLC, 420 nm light; format: physicochemical; settings: 70 mW/cm^2
Method: FIGS. 4A and 4B show the photocleavage of cOSI-027 by HPLC and quantitative analysis. FIG. 4A is a line graph showing the photocleavage of cOSI-027 by HPLC analysis, with 0-1000 mA.U. at the wavelength (342 nm) for cOSI-027 and for OSI-027 when exposed to 420 nm light at 70 mW/cm^2 for 0, 1, 3, 5, 7, 10, or 15 min, respectively. FIG. 4B is a graph showing remaining cOSI-027 (0-400 μM) and released OSI-027 (0-300 μM) over light irradiation time (0, 1, 3, 5, 7, 10, or 15 min, respectively).
The optochemcial characteristics of the caged OSI-027 prodrug were analyzed by spectroscopy (FIGS. 3A-3C). The absorption peaks of the prodrug were located at 300 nm and 380 nm. The emission peak was located at 460 nm under 380 nm excitation. […] To further verify the photocleavage reaction after light irradiation, high performance liquid chromatography (HPLC) was utilized to monitor the cleavage and release of OSI-027 after light irradiation.

| SMILES | phosphorylation of S6K (marker for mTORC1 signaling) (mTORC1 signaling pathway) | phosphorylation of Akt (marker for mTORC2 signaling) (mTORC2 signaling pathway) | LC3-II/LC3-I ratio (autophagy activity; 24 h after the drug treatment, compared with the control group) | number and area of red and yellow puncta in the cells ([1]; compared with the control group) | viability at 50 µM (cancer cells; after 48 h incubation) [%] | patients with stable disease ([2]; 8-12-week follow-up assessment) [% patients] | patients free of progression for more than 24 weeks ([2]; of the patients with stable disease) | toxicity and adverse effects ([2]; phase I clinical trial observations) | LC3-II/LC3-I ratio (autophagy activity; after light irradiation (420 nm LED, 70 mW/cm^2, 3 min), compared with non-irradiation group) | puncta number ([1]; after light irradiation (420 nm LED, 70 mW/cm^2, 3 min)) | cell viability (cancer cells; 50 μM, after light irradiation (420 nm LED, 70 mW/cm^2, 3 min)) | release of OSI-027 (HPLC) ([3]; after 1 min of 420 nm light irradiation) | photocleavage (HPLC) ([3]; after 3 min irradiation, 420 nm) |
| --- | --- | --- | --- | --- | --- | --- | --- | --- | --- | --- | --- | --- | --- |
| COc1cccc2cc(-c3nc([C@H]4CC[C@H](C(=O)O)CC4)n4ncnc(N)c34)[nH]c12 [OSI-027, Trans-4-[4-amino-5-(7-methoxy-1H-indol-2-yl)imidazo[5,1-f][1,2,4]triazin-7-yl]-cyclohexanecarboxylic acid] | decreased | decreased | increased | significantly increase | ~30 | 29.7 | six | induced dose-limiting toxicities (DLT) and adverse effects; also recorded: induced fatigue, gastrointestinal disorders, decreased cardiac function and cardiomyopathy, bone pain, and hyperglycemia; also recorded: frequently led to renal dysfunction |  |  |  |  |  |
| CCN(CC)c1ccc2c(COC(=O)C3CCC(c4nc(-c5cc6cccc(OC)c6[nH]5)c5c(N)ncnn45)CC3)cc(=O)oc2c1 (stereo not drawn) [cOSI-027] | only exhibited significant inhibitory effect on mTORC1 and mTORC2 pathway after light irradiation | only exhibited significant inhibitory effect on mTORC1 and mTORC2 pathway after light irradiation |  |  |  |  |  |  | higher | increased | significantly lower | generation of OSI-027 was characterized by the new peak | almost completed |
